Results: article PMC7169385, “Metabolic Stability of New Mito-Protective Short-Chain Naphthoquinones” (Pharmaceuticals, 2020)
Values joined by “and” are separate entries in the source; they are usually repeats but may differ in a detail not shown here. Equal values may be shown once.

Tests used:
HepG2 cells [1] = test: Metabolic stability study in HepG2 cells with RP-LC quantitation; assay type: in vitro ADME, human; details: for metabolic stability (in words) / metabolic conversion to the oxidized form: up to 6 h; for metabolic conversion to the oxidized form: by retention time, 3 to 5, 14 to 15, 4 to UTAS#94
Description: HepG2 cells were cultured in DMEM culture media in an atmosphere of 95% humidified air and 5% CO2 at 37 °C. Cells were passaged twice a week when reaching approximately 75% confluency. Cell monolayers were washed with PBS once before harvested with 0.5 mL EDTA and 0.5 mL trypsin for 3.5 min and counted using a hemocytometer (Paul Marienfeld GmbH, Lauda-Königshofen, Germany). Cells were routinely grown in 25 cm^2 cell culture flasks (2 μm vent cap, Corning, Victoria, Australia) with 2 × 10^6 cells seeded in 5 mL culture media. After thawing from liquid nitrogen storage, cells were passaged for at least 2–3 weeks to reach steady cumulative growth rates before used for any experiments.
To effectively compare the metabolic stability of our novel SCQs to the reference compound idebenone, a cell culture system had to be developed that would replicate the high metabolic conversion of idebenone in the liver observed in vivo [15, 16, 17]. We therefore employed the hepatic cell line HepG2 to expose the test compounds to hepatic-like enzymatic activities. In addition, the test concentration for SCQs and idebenone had to take into consideration two opposing factors. On the one hand the assay would need to contain sufficient test compound to maximize detection accuracy, on the other hand, the concentration needed to be below the levels that might induce toxicity towards the cultured cells. Based on previous data, no significant cell loss was observed when HepG2 cells were treated with most SCQs at a concentration of 200 μM for 24 h, which led us to select the lower concentration of 40 μM as test concentration. […] We therefore selected the lowest cell concentration (2.5 × 10^5 cells in 2 mL culture media) for this assay.
Log phase HepG2 cells were seeded at 2.5 × 10^5 cells well^−1 in tissue culture-treated 6-well plates (Corning, Victoria, Australia) and allowed to adhere overnight. After one day, the culture media was replaced with fresh culture media (2 mL well^−1) containing the test compounds (12 parallel wells per SCQ). After incubation of cells with test compounds for up to 6 hours, the cell culture media containing the residual SCQs was removed from the six-well plates. Then, 1 mL of cell culture media containing each tested compound was collected at different time points (t = 0, 2 h, 4 h, 6 h). Several methods of sample preparation were tested (e.g., dilution with organic solvents followed by evaporation) and the most suited approach was identified. Each sample (1 mL) was mixed 1:1 with ACN, vortexed for 10 s, and then centrifuged at 2000× g for 10 min at 25 °C. 1 mL of each supernatant was diluted 1:1 in purified water and filtered using 0.45 μm filters prior to immediate analysis by RP-LC. The final concentration of tested compounds for RP-LC analysis was ≤10 μM.
The RP-LC method was developed so that ≤10 μM of each SCQ could be quantified with acceptable repeatability (RSD%) and recovery (%). The mobile phase gradient was adjusted to generate a retention time (RT) of all compounds between 3.00–9.05 min (Table S1). The final conditions included a gradient flow of mobile phase B: 25% (same ACN% in the sample) for 2 min, 25–95% for 3 min, 95% for 4 min, 95–25% for 1 min, and 25% for 5 min (total run t = 15 min, including column post-conditioning). The injection volume (2–20 μL) and detection wavelength (210 nm, 230 nm, 254 nm, 480 nm) were then varied to optimize sensitivity, with 20 μL sample injection volume and detection at 210 nm identified as ideal (Figure S3). Supplementary Table S1 summarizes the analytical figures of merit for the RP-LC of all the compounds. […] The limit of quantification (LOQ) of each compound was established as 1 μM. RSD% (n = 3) at all concentrations (1.0 μM, 2.5 μM, 5.0 μM, 7.5 μM, and 10 μM) were between 0.4–7.6%. […] The above values for analytical figures of merit were considered acceptable for determining metabolic stability of the compounds with concentrations ≤10 μM. […]

HepG2 cells [2] = test system: HepG2 cells; design: method as in PMID 30996858; details: ref [11], cited from earlier work; for In vitro Cytoprotection (%): HepG2, 10 μM SCQ, rotenone, cell survival relative to untreated cells (27.9 ± 7.9%), mean ± SD
[3] = test system: idebenone metabolism in HepG2 cells; test: Idebenone metabolism in HepG2 cells with or without 5; assay type: in vitro ADME, human; details: HepG2, 6 h
Description: The conversion from the L-phenylalaninol derivative 3 to the L-phenylalanine derivative 5 appeared to reach a plateau at ~10% conversion from t = 2 h and persisted for the entire test period until t = 6 h. […] A concentration series of the unstable reference SCQ idebenone was tested for metabolic stability for 6 h with or without 40 μM 5 (Figure 4). […] Future studies will need to address the type of inhibition and to identify the specific enzyme that is inhibited.
Figure 4 Reduced idebenone metabolism in the presence of the L-phenylalanine derivative 5. Data was expressed as mean ± SEM from three independent experiments, with 4 data points each. Non-linear fits and two-way ANOVA were performed for comparisons between with or without 5 supplemented: *** p < 0.001, * p < 0.033.

[4] = design: method as in PMID 19125241; details: single dose of 150 mg; ref [15]; cited from earlier work

Row | SMILES | metabolic stability (in words) (HepG2 cells [1]; HepG2, 40 μM) | In vitro Cytoprotection (%) (HepG2 cells [2]) | further results
1 | CC1=C(CCCC(=O)N[C@H](CO)c2ccccc2)C(=O)c2ccccc2C1=O [Compound 1] | without a significant metabolic conversion | 83.8 ± 19.9 | –
2 | CC1=C(CCCC(=O)N[C@@H](CO)c2ccccc2)C(=O)c2ccccc2C1=O [Compound 2] | without a significant metabolic conversion | 87.6 ± 19.7 | –
3 | CC1=C(CCCC(=O)N[C@H](CO)Cc2ccccc2)C(=O)c2ccccc2C1=O [Compound 3] | much less stable than its unnatural D-enantiomer 4 | 93.1 ± 13.7 | –
4 | CC1=C(CCCC(=O)N[C@@H](CO)Cc2ccccc2)C(=O)c2ccccc2C1=O [Compound 4] | without a significant metabolic conversion | 80.0 ± 21.1 | metabolic conversion to the oxidized form (HepG2 cells [1]; HepG2, 40 μM): no conversion was detected
5 | CC1=C(CCCC(=O)N[C@@H](Cc2ccccc2)C(=O)O)C(=O)c2ccccc2C1=O [Compound 5] | without a significant metabolic conversion | 100.3 ± 17.3 | stability of 5 in combination with idebenone ([3]; 40 μM 5, all concentrations of idebenone): stable; effect on idebenone metabolism ([3]; 40 μM 5, from 20 μM idebenone onward): significant reduction of idebenone metabolism
6 | CC1=C(CCCCC(=O)N[C@@H](Cc2ccccc2)C(=O)O)C(=O)c2ccccc2C1=O [Compound 6] | without a significant metabolic conversion | 90.7 ± 15.6 | –
7 | CC1=C(CCCC(=O)NCCc2ccc(O)cc2)C(=O)c2ccccc2C1=O [Compound 7] | less stable | 91.7 ± 15.6 | –
8 | CC1=C(CCCCC(=O)NCCc2ccc(O)cc2)C(=O)c2ccccc2C1=O [Compound 8] | increased metabolic stability | 91.8 ± 9.8 | –
9 | CC1=C(CCCCCC(=O)NCCc2ccc(O)cc2)C(=O)c2ccccc2C1=O [Compound 9] | increased metabolic stability | 85.2 ± 9.5 | –
10 | CC1=C(CCCC(=O)N[C@@H](CC(C)C)C(=O)O)C(=O)c2ccccc2C1=O [Compound 10] | without a significant metabolic conversion | 98.7 ± 10.9 | –
11 | COc1ccc(CCNC(=O)CCCC2=C(C)C(=O)c3ccccc3C2=O)cc1OC [Compound 11] | – | 95.9 ± 19.4 | –
12 | CCCCNC(=O)CCCC1=C(C)C(=O)c2ccccc2C1=O [Compound 12] | – | 82.0 ± 7.1 | –
13 | COC(=O)[C@@H](NC(=O)CCCC1=C(C)C(=O)c2ccccc2C1=O)c1ccccc1 [Compound 13] | – | 86.1 ± 5.0 | –
14 | CC1=C(CCCC(=O)N2CCCC2CO)C(=O)c2ccccc2C1=O (stereo not drawn) [Compound 14] | – | 100.7 ± 28.4 | metabolic conversion to the oxidized form (HepG2 cells [1]; HepG2, 40 μM): not detected at all
15 | CC1=C(CCCC(=O)N2CCCC2C(=O)O)C(=O)c2ccccc2C1=O (stereo not drawn) [Compound 15] | – | 92.7 ± 7.6 | –
16 | CC1=C(SCCC(=O)O)C(=O)c2ccccc2C1=O [Compound 16] | significantly reduced metabolic stability | – | –
17 | COC1=C(OC)C(=O)C(CCCCCCCCCCO)=C(C)C1=O [Idebenone, reference compound] | – | 66.2 ± 12.0 | remaining at t = 6 h (HepG2 cells [1]; HepG2 2.5 × 10^5 cells per well, 40 μM, 6 h, normalized to t = 0): ~ 27.3%; metabolized drug after 2 h (HepG2 cells [1]; HepG2, 40 μM, 2 h, three cell densities (2.5 × 10^5 to 1.0 × 10^6 cells in 2 mL)): ~ 50%; metabolized drug after 4 h (HepG2 cells [1]; HepG2, 40 μM, 4 h, three cell densities (2.5 × 10^5 to 1.0 × 10^6 cells in 2 mL)): ~76%; t1/2 in vivo [4]: 3 h and ~ 3 h
18 | CC1=C(CCCC(=O)N[C@H](Cc2ccccc2)C(=O)O)C(=O)c2ccccc2C1=O [UTAS#94] | – | – | cytoprotection (in words) (HepG2 cells [2]; selection for the current study): not cytoprotective enough
